Experimental findings from US20250042961A1, “P53 PEPTIDOMIMETIC MACROCYCLES” (MERCK SHARP & DOHME LLC, priority 2021, published 2025) are described below.

What is called pKd is −log10 of the Kd, conventionally taken in molar units. Lower therefore signals a large Kd. Broadly, the pEC50 is the EC50 on a negative log10 scale, so that one unit is a factor of ten. For orientation: chromatographic logD means lipophilicity estimated from chromatographic retention. Low readings indicate lower lipophilicity, high ones higher lipophilicity. One may read the solubility as the concentration that dissolves in the medium under given conditions. A high value points to much dissolved substance.

pEC50, pKd: −log10 of the molar value. Where two headings read alike, the source gives them in different places. *1 amine or outer side, *2 acyl side, *3 side chain or, on linkers, in order; H or OH if unused. Where a SMILES comes first, the peptide text is derived from it. Bridges are numbered along the chain shown (N, C = ends). [ ]: non-standard residue; d: D form. ξ: configuration not given here. ξαMeNle(6-ylidene) = CC(CCCC=[*:3])(N[*:1])C(=O)[*:2]; dPhe(4-CF3) = N[C@H](Cc1ccc(C(F)(F)F)cc1)C(=O)O; dTrp(6-F) = N[C@H](Cc1c[nH]c2cc(F)ccc12)C(=O)O

Data set [1] concerns the target T1, MDM2 (1-125) (Homo sapiens, UniProt Q00987).
T1 construct: GST (N); His6 (N); TEV cleavage site ENLYFQG (N); made in house; host or cells: Escherichia coli BL21 (DE3) Rosetta T1R
In words: Competitive fluorescence anisotropy assay (FP Kd MDM2). It is filed as binding. The text has this:
For use in the peptide binding assay, a human MDM2 1-125 sequence was cloned into a pNIC-GST vector. The TEV (tobacco etch virus) cleavage site was changed from ENLYFQS (SEQ ID NO: 13) to ENLYFQG (SEQ ID NO: 14) to give a fusion protein with the following sequence:
[P] is the protein concentration (MDM2), [L] is the labeled peptide concentration, r is the anisotropy measured, r0 is the anisotropy of the free peptide, rb is the anisotropy of the MDM2-FAM-labeled peptide complex, Kd is the dissociation constant, [L]t is the total FAM labeled peptide concentration, and [P]t is the total MDM2 concentration. […] These values were then used to determine apparent Kd values of the respective competing ligands in subsequent competition assays in fluorescence anisotropy experiments. MDM2 and MDM4 competition experiments were performed with their respective concentrations held constant at 250 nM and 75 nM, in the presence of 50 nM of FAM-labeled 12/1. The competing molecules were then titrated against the complex of the FAM-labeled peptide and protein. Apparent Kd values were determined by fitting the experimental data to the equations shown below:
[L]st and [L]t denote labeled ligand and total unlabeled ligand input concentrations, respectively. Kd2 is the dissociation constant of the interaction between the unlabeled ligand and the protein.
In all competition experiments, it is assumed that [P]t>[L]st, otherwise considerable amounts of free labeled ligand would always be present and would interfere with measurements. Kd1 is the apparent Kd for the labeled peptide used and has been experimentally determined as described in the previous paragraph. The FAM-labeled peptide was dissolved in dimethyl sulfoxide (DMSO) at 1 mM and diluted into experimental buffer. Readings were carried out with an Envision Multilabel Reader (PerkinElmer). Experiments were carried out in PBS (2.7 mM KCl, 137 mM NaCl, 10 mM Na2HPO4 and 2 mM KH2PO4 (pH 7.4)) and 0.1% Tween-20 buffer. All titrations were carried out in triplicate. Curve-fitting was carried out using Prism 4.0 (GraphPad®). […] Negative control titrations of the ligands under investigation were also carried out with the fluorescently labeled peptide (in the absence of MDM2) to ensure no interactions were occurring between the ligands and the FAM-labeled peptide. […] Measurements were taken a minimum of three times (biological replicates) and values are reported as geometric means of the replicates.
Background: In fluorescence polarisation assays a small probe gives low polarisation when free and higher when bound to something large.

In data set [2] the test system is HCT116 cells. It is filed as cell-based. The note with it: serum condition not stated; read-out: LDH-release EC50. The method, then: HCT116 cells were stably transfected with a p53 responsive β-lactamase reporter and expanded in McCoy's 5A Medium with 10% fetal bovine serum (FBS), Blasticidin, and Penicillin/Streptomycin and then transferred to 1.5 mL freezing vials and stored under liquid nitrogen in growth media containing 5% DMSO. One day prior the assay, a vial of banked cells was recovered in a cell culture flask and incubated for 24 hours, followed by removal of cell growth media and replacement with Opti-MEM containing 2% FBS. The cells were then seeded into a 384-well plate at a density of 8000 cells per well. […] The final working concentration of DMSO was 0.5%. Lactate dehydrogenase release was detected using the CytoTox-ONE Homogenous Membrane Integrity Assay Kit (Promega), as per the manufacturer's instructions. Measurements were carried out using the Tecan plate reader. Maximum LDH release was defined as the amount of LDH released as induced by the lytic peptide (iDNA79) and used to normalize the results. Measurements were taken a minimum of three times (biological replicates) and values are reported as geometric means of the replicates.

In data set [3] the test system is Jump-In T-REx CHO-K1 BLA cells. In words: Tetracycline beta-lactamase reporter gene cellular assay (counterscreen). It is filed as cell-based. On the procedure: This assay was based on Jump-In™ T-REx™ CHO-K1 BLA cells containing a stably integrated β-lactamase under the control of an inducible cytomegalovirus (CMV) promoter. Cells were maintained in Dulbecco's Minimal Eagle Medium (DMEM) with 10% fetal bovine serum (FBS), Blasticidin, and Penicillin/Streptomycin and then transferred to 1.5 mL freezing vials and stored under liquid nitrogen in growth media containing 5% DMSO. […] Cells were seeded into a 384-well plate at a density of 4000 cells per well. […] The final working concentration of DMSO was 0.5%. β-lactamase activity was detected using the ToxBLAzer Dual Screen (Invitrogen), as per the manufacturer's instructions. Measurements were carried out using the Envision multiplate reader (PerkinElmer). Counterscreen activity was defined as the amount of β-lactamase activity induced by tetracycline. Measurements were taken a minimum of three times (biological replicates) and values are reported as geometric means of the replicates.
In general terms: Reporter assays use an easily measured gene product as a stand-in for the process of interest.

Data set [4] deals with p53 responsive β-lactamase reporter in HCT116 cells. In words: p53 beta-lactamase reporter gene cellular functional assay. It is filed as cell-based. On the procedure: HCT116 cells were stably transfected with a p53 responsive β-lactamase reporter and expanded in McCoy's 5A Medium with 10% fetal bovine serum (FBS), Blasticidin, and Penicillin/Streptomycin and then transferred to 1.5 mL freezing vials and stored under liquid nitrogen in growth media containing 5% DMSO. […] The cells were then seeded into a 384-well plate at a density of 8000 cells per well. […] The final working concentration of DMSO was 0.5%. β-lactamase activity was detected using the ToxBLAzer Dual Screen (Invitrogen), as per the manufacturer's instructions. Measurements were made using the Envision multiplate reader (PerkinElmer). […] Measurements were taken a minimum of three times (biological replicates) and values are reported as geometric means of the replicates.

Data set [5] deals with p53 null Ca Ski. It is filed as cell-based. The settings on record: 72 h. From the text:
(§1) To further establish the impact of the above modification in making cleaner “drug” like compounds, we profiled a set of compounds of the invention in cellular proliferation assays (Table 3).

The test system of data set [6] is HCT116. It is filed as cell-based.
From the text: as §1

Data set [7] can be described thus: physchem.
Data set [8] in a line: Helicity stated in text (method not given). The settings on record: aqueous solution for compound 6. It is filed as physicochemical.
A short description of data set [9]: Solubility (PBS, pH 7).
Where [10] appears, read: read-out: Counter screen EC50 (0% FBS, 4 h), 0% FBS, 4 h.
Where [11] appears, read: read-out: Counter screen EC50 (10% FBS, 16 h), 10% FBS, 16 h.
Setting [12] is: read-out: p53 activity EC50 (0% FBS, 4 h), 0% FBS, 4 h.
Where [13] appears, read: read-out: p53 activity EC50 (10% FBS, 16 h), 10% FBS, 16 h.

T1 sequence (Q00987 with tags, fused parts or gaps): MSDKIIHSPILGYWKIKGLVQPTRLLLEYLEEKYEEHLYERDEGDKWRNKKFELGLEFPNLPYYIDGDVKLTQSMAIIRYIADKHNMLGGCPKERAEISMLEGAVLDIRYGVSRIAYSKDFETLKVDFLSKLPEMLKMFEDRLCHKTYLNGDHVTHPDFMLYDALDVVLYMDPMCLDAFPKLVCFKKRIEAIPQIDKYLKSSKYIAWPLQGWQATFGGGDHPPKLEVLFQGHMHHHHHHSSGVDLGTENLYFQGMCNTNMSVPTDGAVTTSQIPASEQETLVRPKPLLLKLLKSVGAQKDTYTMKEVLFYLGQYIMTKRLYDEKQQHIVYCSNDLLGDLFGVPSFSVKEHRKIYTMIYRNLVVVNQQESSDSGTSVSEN

Take `CC(=O)N[C@@H](C(=O)N[C@H](C)C(=O)N[C@H](Cc1c[nH]c2cc(F)ccc12)C(=O)N[C@H](Cc1ccc(O)cc1)C(=O)N[C@H](C)C(=O)NC1(C)CCC/C=C\CCCC(C)(C(=O)N[C@H](CC(C)C)C(=O)N[C@H](CO)C(N)=O)NC(=O)[C@@H](CCC(N)=O)NC(=O)[C@@H](CCC(=O)O)NC(=O)[C@@H](Cc2ccc(C(F)(F)F)cc2)NC1=O)[C@H](C)O` (stereo partly drawn) [Compound 2, Acetyl-^DPMI-δ-(6-10 olefinstaple) (D-K9D-Q, D-R12D-S)-NH2] (Ac-[dT][dA][dTrp(6-F)][dY][dA][ξαMeNle(6-ylidene)][dPhe(4-CF3)][dE][dQ][ξαMeNle(6-ylidene)][dL][dS]-NH2; staple (Z) 6-10): the pKd in data set [1] was 6.59. Also, the pEC50 was under 4.30 in data set [2]; under 4.30 in data set [3] (setting [10]); under 4.30 in [3] (setting [11]); under 4.30 in data set [3] (serum condition not stated, read-out: counterscreen EC50); 5.44 in [4] (setting [12]); under 4.30 in [4] (setting [13]). For the same molecule, the pEC50 was 4.52 in data set [5] and 5.04 in [6] (72 h). For the same molecule, the “improvement of p53 reporter gene functional cellular activity” value in [4] (0% serum, versus compound 1) was found to be 3 fold. The “HCT116 proliferation % Max” value in [6] (72 hours, 10% serum) amounted to 80%.
As for `CC(=O)N[C@@H](C(=O)N[C@H](C)C(=O)N[C@H](Cc1c[nH]c2cc(F)ccc12)C(=O)N[C@H](Cc1ccc(O)cc1)C(=O)N[C@H](C)C(=O)NC1(C)CCC/C=C\CCCC(C)(C(=O)N[C@H](CC(C)C)C(=O)N[C@H](CO)C(=O)N[C@H](C)C(=O)N[C@H](Cc2ccccc2)C(=O)N[C@H](C)C(=O)N[C@H](C)C(=O)N[C@H](C)C(=O)N[C@H](C)C(N)=O)NC(=O)[C@@H](CCC(N)=O)NC(=O)[C@@H](CCC(=O)O)NC(=O)[C@@H](Cc2ccc(C(F)(F)F)cc2)NC1=O)[C@H](C)O.N` (stereo partly drawn) [Compound 6] (Ac-[dT][dA][dTrp(6-F)][dY][dA][ξαMeNle(6-ylidene)][dPhe(4-CF3)][dE][dQ][ξαMeNle(6-ylidene)][dL][dS][dA][dF][dA][dA][dA][dA]-NH2; staple (Z) 6-10), the pKd in [1] is 7.52. Further, the pEC50 in [3] (setting [10]) was under 4.30; in [3] (setting [11]), under 4.30; in [4] (setting [12]) it was 5.02; in data set [4] (setting [13]), 5.76. The molecule further yielded a chromatographic logD in data set [7] of 3.06. The helicity entry in [8] is “about 65%”. The molecule also had a solubility in data set [9] of 146 µM.
